Measured values reported in PubChem BioAssay (NCI).
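Tested at 5 concentrations; 48 h exposure; 96-well plates; endpoints linearly interpolated, else capped at highest concentration. TGI: concentration producing complete growth inhibition.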

How the values were obtained:
Test in all cases: growth of human tumour cells (NCI), 48 h
[1] = system: HL-60(TB) leukemia
[2] = system: SF-268 CNS
[3] = system: ACHN renal
[4] = system: MALME-3M melanoma
[5] = system: HS 578T breast
[6] = system: SNB-75 CNS
[7] = system: U251 CNS
[8] = system: PC-3 prostate
[9] = system: SF-539 CNS
[10] = system: T-47D breast
[11] = system: UACC-62 melanoma
[12] = system: RXF 393 renal
[13] = system: NCI/ADR-RES ovarian
[14] = system: EKVX NSCLC
[15] = system: RPMI-8226 leukemia
[16] = system: SK-MEL-5 melanoma
[17] = system: HCT-116 colon
[18] = system: HT29 colon
[19] = system: BT-549 breast
[20] = system: MDA-MB-435
[21] = system: OVCAR-5 ovarian
[22] = system: NCI-H23 lung
[23] = system: MDA-MB-231 breast
[24] = system: SK-MEL-28 melanoma
[25] = system: UO-31 renal
[26] = system: IGROV1 ovarian
[27] = system: KM12 colon
[28] = system: DU-145 prostate
[29] = system: NCI-H522 lung
[30] = system: OVCAR-8 ovarian
[31] = system: HOP-92 NSCLC
[32] = system: MCF7 breast
[33] = system: CAKI-1 renal
[34] = system: M14 melanoma
[35] = system: SN12C renal
[36] = system: SF-295 CNS
[37] = system: 786-0 renal
[38] = system: SK-OV-3 ovarian
[39] = system: UACC-257 melanoma
[40] = system: COLO 205 colon
[41] = system: HCC-2998 colon
[42] = system: A498 renal
[43] = system: SK-MEL-2 melanoma
[44] = system: SW-620 colon
[45] = system: HCT-15 colon
[46] = system: MDA-N
[47] = system: A549 NSCLC
[48] = system: OVCAR-4 ovarian
[49] = system: TK-10 renal
[50] = system: SNB-19 CNS
[51] = system: OVCAR-3 ovarian
[52] = system: NCI-H460 lung
[53] = system: NCI-H226 lung
[54] = system: HOP-62 NSCLC
[55] = system: CCRF-CEM leukemia
[56] = system: K-562 leukemia
[57] = system: MOLT-4 leukemia
[58] = system: SR leukemia
[59] = system: LOX IMVI melanoma

Compound `Cc1cc(NCc2ccccc2)c2ccccc2[n+]1CCCCCCCCCC[n+]1c(C)cc(NCc2ccccc2)c2ccccc21` has a TGI [1] of 1.19 µM, a TGI [2] of 2.45 µM and a TGI [3] of 2.92 µM. The TGI [4] was > 100 µM, the TGI [5] was 11.6 µM and the TGI [6] was 1.94 µM. The TGI [7] was 0.795 µM, the TGI [8] was 5.16 µM and the TGI [9] was 1.13 µM. For the same compound, the TGI [10] was 1.41 µM, the TGI [11] was 0.567 µM and the TGI [12] was 12.9 µM. The TGI [13] was 21.9 µM, the TGI [14] was 13.4 µM and the TGI [15] was 1.44 µM. It also gave a TGI [16] of 0.638 µM, a TGI [17] of 1.45 µM and a TGI [18] of 1.63 µM. It also gave a TGI [19] of 1.98 µM, a TGI [20] of 1.65 µM and a TGI [21] of 12.7 µM. The TGI [22] was 1.86 µM, the TGI [23] was 1.74 µM and the TGI [24] was 2.16 µM. The TGI [25] was 7.15 µM, the TGI [26] was > 100 µM and the TGI [27] was 0.796 µM. For the same compound, the TGI [28] was 10.9 µM, the TGI [29] was 44.3 µM and the TGI [30] was 6.71 µM. It also gave a TGI [31] of 2.25 µM, a TGI [32] of 1.91 µM and a TGI [33] of 5.48 µM. The TGI [34] was 3.22 µM, the TGI [35] was 1.08 µM and the TGI [36] was 2.49 µM. It also gave a TGI [37] of 2.44 µM, a TGI [38] of 6.85 µM and a TGI [39] of 1.31 µM. It also gave a TGI [40] of 0.665 µM, a TGI [41] of 1.79 µM and a TGI [42] of 14.5 µM. It also gave a TGI [43] of 2.08 µM, a TGI [44] of 4.31 µM and a TGI [45] of 5.88 µM. For the same compound, the TGI [46] was 1.4 µM, the TGI [47] was 4.39 µM and the TGI [48] was > 100 µM. For the same compound, the TGI [49] was 3.17 µM and the TGI [50] was > 100 µM.
In the case of `O=C1/C(=C/c2ccc(Cl)cc2)CSc2ccccc21`, the TGI [1] is reported as 64.6 µM, the TGI [2] is reported as 73 µM and the TGI [51] is reported as 49.1 µM. For the same compound, the TGI [4] was 74.4 µM, the TGI [5] was 75.5 µM and the TGI [52] was > 100 µM. For the same compound, the TGI [6] was 72.7 µM, the TGI [7] was 24.6 µM and the TGI [8] was 44.5 µM. The TGI [9] was 35.7 µM, the TGI [10] was 58.3 µM and the TGI [11] was 14.6 µM. It also gave a TGI [12] of 36.3 µM, a TGI [13] of 34.5 µM and a TGI [15] of 5.29 µM. It also gave a TGI [53] of 45.2 µM, a TGI [16] of 46 µM and a TGI [18] of 49.6 µM. It also gave a TGI [54] of 63.9 µM, a TGI [19] of 78.6 µM and a TGI [20] of 20.7 µM. It also gave a TGI [22] of 45.1 µM, a TGI [23] of 55.9 µM and a TGI [24] of 44.1 µM. For the same compound, the TGI [55] was 9.26 µM, the TGI [25] was 36.1 µM and the TGI [26] was 66.4 µM. For the same compound, the TGI [27] was > 100 µM, the TGI [28] was > 100 µM and the TGI [30] was > 100 µM. It also gave a TGI [31] of 90.3 µM, a TGI [32] of 9.35 µM and a TGI [33] of 46.7 µM. For the same compound, the TGI [34] was > 100 µM, the TGI [35] was 43.4 µM and the TGI [37] was 39.3 µM. For the same compound, the TGI [38] was > 100 µM, the TGI [39] was 37.4 µM and the TGI [40] was 64.3 µM. For the same compound, the TGI [56] was 92.1 µM, the TGI [57] was > 100 µM and the TGI [42] was > 100 µM. The TGI [43] was 41.8 µM, the TGI [44] was > 100 µM and the TGI [45] was > 100 µM. For the same compound, the TGI [46] was 61.7 µM, the TGI [47] was > 100 µM and the TGI [58] was > 100 µM. The TGI [48] was 71.4 µM, the TGI [49] was > 100 µM and the TGI [59] was 6.21 µM. For the same compound, the TGI [50] was 39.4 µM.
